These results are taken from patent US9346812B2, “Substituted pyrrolopyrimidine compounds, compositions thereof, and methods of treatment therewith” (Signal Pharmaceutical LLC, priority 2013, dated 2016).

This experiment concerns CAL51 cell proliferation. The experiment can be described thus: Cell Titer Glo Proliferation Assay (CAL51). The class given is cell-based, human. The note with it: Homo sapiens, CAL-51; CAL51 cell proliferation, 72 h, Cell Titer Glo luminescence; read-out: Act. Level. The gist of the method: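 CAL51 triple-negative breast cancer cells in DMEM or RPMI with 10% FBS were treated after overnight culture with serially diluted compound at 0.2% final DMSO. After 72 h, viability was read as CellTiter-Glo luminescence.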

Consider `CNC(=O)c1ccc(Nc2nc(OC3CCOCC3)c3c(-c4ccncc4)c[nH]c3n2)c(OC)c1` [Example 114, 3-methoxy-N-methyl-4-(5-(pyridin-4-yl)-4-(tetrahydro-2H-pyran-4-yloxy)-7H-pyrrolo[2,3-d]pyrimidin-2-ylamino)benzamide], for which the IC50 was less than 100 nM. The figure for `CNC(=O)c1ccc(Nc2nc(OC(C)C)c3c(-c4ccnc(C)c4)c[nH]c3n2)c(OC)c1` [Example 201, 4-(4-isopropoxy-5-(2-methyl-pyridin-4-yl)-7H-pyrrolo[2,3-d]pyrimidin-2-ylamino)-3-methoxy-N-methylbenzamide] is less than 100 nM; for `CNC(=O)c1cc(C)c(Nc2nc(OC3CCCC3)c3c(-c4ccc5nc(C)oc5c4)c[nH]c3n2)c(OC)c1` [Example 298, 4-(4-(cyclopentyloxy)-5-(2-methylbenzo[d]oxazol-6-yl)-7H-pyrrolo[2,3-d]pyrimidin-2-ylamino)-3-methoxy-N,5-dimethylbenzamide] it is 1000 to 10000 nM; for `C[C@@H](O)c1cccc(-c2c[nH]c3nc(Nc4ccc(C(=O)N(C)C)cc4Cl)nc(NC4CCOCC4)c23)c1` [Example 84, (R)-3-chloro-4-(5-(3-(1-hydroxyethyl)phenyl)-4-(tetrahydro-2H-pyrazin-4-ylamino)-7H-pyrrolo [2,3-d]pyrimidin-2-ylamino)-N,N-dimethylbenzamide] it is 100 to 400 nM. Turning to `COc1cc(NC(C)=O)ccc1Nc1nc(OC2CCCC2)c2c(-c3ccc4nc(C)oc4c3)c[nH]c2n1` [Example 247, N-(4-(4-(cyclopentyloxy)-5-(2-methylbenzo[d]oxazol-6-yl)-7H-pyrrolo[2,3-d]pyrimidin-2-ylamino)-3-methoxyphenyl) acetamide], the IC50 lay in the range of 100 to 400 nM. The figure for `Cc1nc2ccc(-c3c[nH]c4nc(Nc5ccc6c(c5)CNC6=O)nc(OC5CCCC5)c34)cc2o1` [Example 235, 5-(4-(cyclopentyloxy)-5-(2-methylbenzo[d]oxazol-6-yl)-7H-pyrrolo[2,3-d]pyrimidin-2-ylamino)isoindolin-1-one] is less than 100 nM; for `COc1cc(C(=O)N2CC2)ccc1Nc1nc(OC2CCCC2)c2c(-c3ccc4nc(C)oc4c3)c[nH]c2n1` [Example 262, aziridin-1-yl(4-(4-(cyclopentyl-oxy)-5-(2-methylbenzo[d]oxazol-6-yl)-7H-pyrrolo[2,3-d]pyrimidin-2-ylamino)-3-methoxyphenyl) methanone] it is 100 to 400 nM. `CNC(=O)c1ccc(Nc2nc(OC3CCOCC3)c3c(-c4ccnnc4)c[nH]c3n2)c(OC)c1` [Example 269, 3-methoxy-N-methyl-4-(5-(pyridazin-4-yl)-4-(tetrahydro-2H-pyran-4-yloxy)-7H-pyrrolo[2,3-d]pyrimidin-2-ylamino)benzamide]: the IC50 was in the range of 400 to 1000 nM. The figure for `Cc1nc2ccc(-c3c[nH]c4nc(Nc5ccc(C(=O)N(C)C)cc5C)nc(OC5CCN(C)CC5)c34)cc2o1` [Example 95, N,N,3-trimethyl-4-(5-(2-methylbenzo[d]oxazol-6-yl)-4-(1-methylpiperidin-4-yloxy)-7H-pyrrolo[2,3-d]pyrimidin-2-ylamino)benzamide] is 400 to 1000 nM; for `CNC(=O)c1ccc(Nc2nc(OC3CCOCC3)c3c(-c4nnco4)c[nH]c3n2)c(OC)c1` [Example 174, 4-(5-(1,3,4-oxadiazol-2-yl)-4-(tetrahydro-2H-pyran-4-yloxy)-7H-pyrrolo[2,3-d]pyrimidin-2-ylamino)-3-methoxy-N-methylbenzamide] it is 400 to 1000 nM; for `COc1cc(C(=O)N(C)CCCO)ccc1Nc1nc(OC2CCCC2)c2c(-c3ccc4nc(C)oc4c3)c[nH]c2n1` [Example 283] it is less than 100 nM. The figure for `CNC(=O)c1ccc(Nc2nc(O[C@H]3CCOC3)c3c(-c4ccc5nc(C)oc5c4)c[nH]c3n2)c(C(C)C)c1` [Example 209, (S)-3-isopropyl-N-methyl-4-(5-(2-methylbenzo[d]oxazol-6-yl)-4-(tetrahydrofuran-3-yloxy)-7H-pyrrolo[2,3-d]pyrimidin-2-ylamino)benzamide] is 1000 to 10000 nM; for `CNC(=O)c1ccc(Nc2nc(OC3CCCC3)c3c(-c4ccc(O)c(F)c4)c[nH]c3n2)c(OC)c1` [Example 42, 4-(4-(cyclopentyloxy)-5-(3-fluoro-4-hydroxyphenyl)-7H-pyrrolo[2,3-d]pyrimidin-2-ylamino)-3-methoxy-N-methylbenzamide] it is less than 100 nM; for `CNC(=O)c1ccc(Nc2nc(OCCO)c3c(-c4ccc5nc(C)oc5c4)c[nH]c3n2)c(OC)c1` [Example 168, 4-(4-(2-hydroxyethoxy)-5-(2-methylbenzo[d]oxazol-6-yl)-7H-pyrrolo[2,3-d]pyrimidin-2-ylamino)-3-methoxy-N-methylbenzamide] it is less than 100 nM. As for `Cc1nc2ccc(-c3c[nH]c4nc(Nc5ccc(C(=O)N(C)C)cc5C)nc(OC5CCNCC5)c34)cc2o1` [Example 97, N,N,3-trimethyl-4-(5-(2-methylbenzo[d]oxazol-6-yl)-4-(piperidin-4-yloxy)-7H-pyrrolo [2,3-d]pyrimidin-2-ylamino) benzamide], the IC50 was in the range of 1000 to 10000 nM.

`CNC(=O)c1ccc(Nc2nc(OCCOC)c3c(-c4ccc5nc(C)oc5c4)c[nH]c3n2)c(OC)c1` [Example 139, 3-methoxy-4-(4-(2-methoxyethoxy)-5-(2-methylbenzo[d]oxazol-6-yl)-7H-pyrrolo[2,3-d]pyrimidin-2-ylamino)-N-methylbenzamide]: the IC50 is less than 100 nM. `COc1cc(C(=O)N2CCC(F)(F)CC2)ccc1Nc1nc(OC2CCCC2)c2c(-c3ccc4nc(C)oc4c3)c[nH]c2n1` [Example 289, (4-(4-(cyclopentyloxy)-5-(2-methylbenzo[d]oxazol-6-yl)-7H-pyrrolo[2,3-d]pyrimidin-2-ylamino)-3-methoxyphenyl)(4,4-difluoropiperidin-1-yl)methanone]: the IC50 was 100 to 400 nM. With `Cc1nc2ccc(-c3c[nH]c4nc(Nc5ccc(C(=O)N(C)C)cc5C)nc(O[C@H]5CCOC5)c34)cc2o1` [Example 98, (S)-N,N,3-trimethyl-4-(5-(2-methylbenzo[d]oxazol-6-yl)-4-(tetrahydrofuran-3-yloxy)-7H-pyrrolo[2,3-d]pyrimidin-2-ylamino)benzamide] the figure was less than 100 nM. For the molecule `CNC(=O)c1ccc(Nc2nc(OC3CCCC3)c3c(-c4ccc(OC)c(OC)c4)c[nH]c3n2)c(OC)c1` [Example 64, 4-(4-(cyclopentyloxy)-5-(3,4-dimethoxyphenyl)-7H-pyrrolo[2,3-d]pyrimidin-2-ylamino)-3-methoxy-N-methylbenzamide], the IC50 was 100 to 400 nM. For `CNC(=O)c1ccc(Nc2nc(OC3CCCC3)c3c(-c4cccc(C(C)(C)O)c4)c[nH]c3n2)c(OC)c1` [Example 47, 4-(4-(cyclopentyloxy)-5-(3-(2-hydroxypropan-2-yl)phenyl)-7H-pyrrolo[2,3-d]pyrimidin-2-ylamino)-3-methoxy-N-methylbenzamide], the IC50 was in the range of 400 to 1000 nM. With `CNC(=O)c1ccc(Nc2nc(OC)c3c(-c4ccc(OC)nc4)c[nH]c3n2)c(OC)c1` [Example 118, 3-methoxy-4-(4-methoxy-5-(6-methoxypyridin-3-yl)-7H-pyrrolo [2,3-d]pyrimidin-2-ylamino)-N-methylbenzamide] the figure was 100 to 400 nM.

On to `CNC(=O)c1ccc(Nc2nc(OC3CCCC3)c3c(-c4ccc(NC(N)=O)cc4)c[nH]c3n2)c(OC)c1` [Example 39, 4-(4-(cyclopentyloxy)-5-(4-ureidophenyl)-7H-pyrrolo[2,3-d]pyrimidin-2-ylamino)-3-methoxy-N-methylbenzamide], for which the IC50 was less than 100 nM. Regarding `CNC(=O)c1ccc(Nc2nc(OC3CCC3)c3c(-c4ccc5nc(C)oc5c4)c[nH]c3n2)c(OC)c1` [Example 198, 4-(4-cyclobutoxy-5-(2-methylbenzo[d]oxazol-6-yl)-7H-pyrrolo[2,3-d]pyrimidin-2-ylamino)-3-methoxy-N-methylbenzamide], the IC50 is less than 100 nM.

`CNC(=O)c1ccc(Nc2nc(OC3CCCC3)c3c(-c4ccc(-c5ncc[nH]5)cc4)c[nH]c3n2)c(OC)c1` [Example 48, 4-(5-(4-(1H-imidazol-2-yl)phenyl)-4-(cyclopentyloxy)-7H-pyrrolo[2,3-d]pyrimidin-2-ylamino)-3-methoxy-N-methylbenzamide]: the IC50 was less than 100 nM. The figure for `CNC(=O)c1ccc(Nc2nc(NC3CCOCC3)c3c(-c4cnn(C)c4)c[nH]c3n2)c(OC)c1` [Example 210, 3-methoxy-N-methyl-4-(5-(1-methyl-1H-pyrazol-4-yl)-4-(tetrahydro-2H-pyran-4-ylamino)-7H-pyrrolo[2,3-d]pyrimidin-2-ylamino)benzamide] is less than 100 nM; for `CNC(=O)c1ccc(Nc2nc(OC3CCCC3)c3c(-c4ccc5ncccc5c4)c[nH]c3n2)c(OC)c1` [Example 306, 4-(4-(cyclopentyloxy)-5-(quinolin-6-yl)-7H-pyrrolo[2,3-d]pyrimidin-2-ylamino)-3-methoxy-N-methylbenzamide] it is less than 100 nM. The figure for `COc1nc(Nc2ccc(C(=O)N(C)C)cc2Cl)nc2[nH]cc(-c3ccc(-c4nnc[nH]4)cc3)c12` [Example 53, 4-(5-(4-(4H-1,2,4-triazol-3-yl)phenyl)-4-methoxy-7H-pyrrolo [2,3-d]pyrimidin-2-ylamino)-3-chloro-N,N-dimethylbenzamide] is 100 to 400 nM. With `CNC(=O)c1ccc(Nc2nc(OC3CCOCC3)c3c(-c4cncnc4)c[nH]c3n2)c(OC)c1` [Example 154, 3-methoxy-N-methyl-4-(5-(pyrimidin-5-yl)-4-(tetrahydro-2H-pyran-4-yloxy)-7H-pyrrolo[2,3-d]pyrimidin-2-ylamino) benzamide] the figure was 100 to 400 nM; with `CNC(=O)c1ccc(Nc2nc(OC3CCCC3)c3c(-c4ccc5[nH]ccc5c4)c[nH]c3n2)c(OC)c1` [Example 81, 4-(4-(cyclopentyloxy)-5-(1H-indol-5-yl)-7H-pyrrolo[2,3-d]pyrimidin-2-ylamino)-3-methoxy-N-methylbenzamide], 400 to 1000 nM; with `CNC(=O)c1ccc(Nc2nc(OC3CCOCC3)c3c(-c4ccnc(C)c4)c[nH]c3n2)c(OC)c1` [Example 167, 3-methoxy-N-methyl-4-(5-(2-methylpyridin-4-yl)-4-(tetrahydro-2H-pyran-4-yloxy)-7H-pyrrolo[2,3-d]pyrimidin-2-ylamino)benzamide], less than 100 nM.
